Patent US12390532B2, “ALK protein regulator and anti-tumor application thereof” (SHANGHAITECH UNIVERSITY, priority 2019, dated 2025)
Like-named read-outs stand apart in the source and are kept apart here.

What was measured:
[1] = tested on: SR cells (NPM-ALK, human anaplastic large cell lymphoma cells); test: Proliferation inhibition (IC50) in SR cells, CCK8 (WST) reagent; assay type: cell-based; conditions: 72 h
Procedure: (§1) The ALK gene rearrangement positive cell line used was SR cells (NPM-ALK, human anaplastic large cell lymphoma cells). MDA-MB231 was a triple-negative breast cancer cell. Both SR cells and MDA-MB231 cells were purchased from ATCC.
The tumor cell line used was daily cultured in a 37° C. incubator containing 5% CO2. The medium was RPMI1640 supplemented with 10% FCS and Penicillin-Streptomycin.
The IC50 of the compound of the present disclosure was determined using Promega's Cell Titer Blue, Cell Titer GLO or commercially available WST reagents. The specific steps were as follows: the cells were seeded in a 96-well plate containing 100 microliters of RPMI medium containing serum at a number of 2000 cells/well. On the second day, the original drug and the compound of the present disclosure were serially diluted and added to the cells. After 72 hours of treatment with the compound of the present disclosure, the cell activity detection reagent was added to the culture medium for cell activity determination according to the instructions. The negative control was DMSO, and the positive control was the original drug, and the cells were treated in the same manner as the compound of the present disclosure. The growth inhibition of the compounds of the present disclosure on cells was plotted by Prism Graphpad software and the IC50 of the compounds of the present disclosure was counted from it.
We conducted dose-dependent experiments on the designed and synthesized compounds of the present disclosure in SR cells. […] The cells were treated with different concentrations of compounds (starting at 10 μM, 3 times dilution factor, 10 concentrations). After 72 hours, the cells were detected using CCK8 reagent (WST).

[2] = molecular target: T1, ALK protein (Homo sapiens, UniProt Q9UM73); test: Western blot of ALK protein degradation in SR cells; assay type: cell-based
T1 construct: We studied the total ALK protein in the anaplastic large cell lymphoma cell line SR; host or cells: SR cells (human anaplastic large cell lymphoma); the other entry of the earlier key: NPM1 (P06748, Nucleophosmin)
T1 sequence (Q9UM73 with tags, fused parts or gaps): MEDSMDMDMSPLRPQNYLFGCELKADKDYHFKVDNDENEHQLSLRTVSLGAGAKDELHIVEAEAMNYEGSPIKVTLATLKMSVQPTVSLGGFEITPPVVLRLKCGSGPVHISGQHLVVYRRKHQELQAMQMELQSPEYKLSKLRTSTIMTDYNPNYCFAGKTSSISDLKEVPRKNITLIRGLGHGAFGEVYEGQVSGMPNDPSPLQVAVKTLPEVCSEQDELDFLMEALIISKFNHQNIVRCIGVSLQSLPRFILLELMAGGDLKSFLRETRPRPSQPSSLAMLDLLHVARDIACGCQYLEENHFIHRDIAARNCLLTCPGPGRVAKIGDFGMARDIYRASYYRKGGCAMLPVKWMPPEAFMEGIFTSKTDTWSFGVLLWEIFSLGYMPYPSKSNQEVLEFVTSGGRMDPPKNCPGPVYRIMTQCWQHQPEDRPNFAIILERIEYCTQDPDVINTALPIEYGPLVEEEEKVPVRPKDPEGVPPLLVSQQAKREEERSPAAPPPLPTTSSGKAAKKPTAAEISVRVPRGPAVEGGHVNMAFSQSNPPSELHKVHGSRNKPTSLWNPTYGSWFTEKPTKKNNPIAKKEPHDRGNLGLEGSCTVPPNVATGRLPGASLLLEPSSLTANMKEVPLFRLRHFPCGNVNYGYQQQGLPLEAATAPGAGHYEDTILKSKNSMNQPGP
Procedure: as §1, with “ATCC. The 293T cells overexpressing EML4-ALK G1202R were the cells constructed and verified for correct expression by this laboratory.” for “ATCC.”
Tumor cells were seeded in a 24-well plate containing 1 ml of RPMI1640 medium at 1.5-3×10^5 cells/well. The next day, the cells were treated with different concentrations of drugs. After 16 hours, the supernatant was removed and the cells were washed with PBS. The cells were placed on ice and the cells were treated with RIPA protein lysate containing Halt protease and phosphatase inhibitors. The lysate was centrifuged at 10000RPM at 4° C. for 10 minutes, and the supernatant was collected. The same amount of protein was added to the 4×SDS sample solution, denatured at 95° C. for 5 minutes and freezen to −20° C., or protein electrophoresis was directly performed. GenScript, a 4-20% gradient protein precast gel was used as the electrophoresis gel. The electrophoresis tank and related components were purchased from Bio-rad, and the electrophoresis conditions were equal pressure 120 v for 2 hours. PVDF membrane was used for the transfer membrane, and the transfer membrane system was placed on ice with an equal current of 400 mA for one hour. After transferring the membrane, it was sealed with TBST+5% milk powder for half an hour. For the specific steps of immunoblotting, refer to the antibody instructions of Cell Signaling Technology.
DC50 (the drug concentration corresponding to protein degradation to 50%) calculation: according to the gray value of the Western blotting band after the drug is processed, the relationship curve between the drug concentration and the gray value is fitted by Prism GraphPad software to calculate the drug concentration range corresponding half of the gray value.
The cells with different concentrations (0, 10, 50, 100, 500 nM) of Brigatinib were first treated in SR cells for 16 hours. Western blotting was used on cell lysate to detect the effect of Brigatinib on the content of ALK protein (FIG. 2).

[3] = SR cells, WST reagent, 72 hours, read-out: IC50 (half inhibitory concentration), Brigatinib series in lymphoma cell lines
[4] = 16 hours, concentration range at half of the gray value, read-out: DC50 (half degradation concentration), Brigatinib series in lymphoma cell lines
[5] = read-out: IC50 (half inhibitory concentration), Alectinib series in lymphoma cell lines, SR cells, WST reagent, 72 hours

| SMILES | IC50 [1, 3] [nM] | IC50 [1, 5] [nM] | also measured |
| --- | --- | --- | --- |
| COc1cc(N2CCC(N3CCN(CCCCC#Cc4cccc5c4CN(C4CCC(=O)NC4=O)C5=O)CC3)CC2)ccc1Nc1ncc(Cl)c(Nc2ccccc2P(C)(C)=O)n1 (stereo not shown) [SIAIS262040, 3-(4-(6-(4-(1-(4-((5-chloro-4-((2-(dimethylphosphono)phenyl)amino)pyrimidin-2-yl)amino)-3-methoxyphenyl)piperidin-4-yl)piperazin-1-yl)hex-1-yn-1-yl)-1-oxoisoindolin-2-yl)piperidine-2,6-dione] | 1.1 | – | DC50 [2, 4]: 0.05 to 0.5 nM |
| CCc1cc2c(cc1N1CCC(N3CCN(CCCC#Cc4cccc5c4CN(C4CCC(=O)NC4=O)C5=O)CC3)CC1)C(C)(C)c1[nH]c3cc(C#N)ccc3c1C2=O (stereo not shown) [SIAIS293001, 8-(4-(4-(5-(2-(2,6-dioxopiperidin-3-yl)-1-oxoisoindolin-4-yl)pent-4-yn-1-yl)piperazin-1-yl)piperidin-1-yl)-9-ethyl-6,6-dimethyl-11-oxo-6,11-dihydro-5H-benzo[b]carbazole-3-carbonitrile] | – | 2.7 | DC50 ([2]; read-out: DC50 (half degradation concentration), Alectinib series in lymphoma cell lines, 16 hours, concentration range at half of the gray value): 0.05 to 0.5 nM |
| COc1cc(N2CCC(N3CCNCC3)CC2)ccc1Nc1ncc(Cl)c(Nc2ccccc2P(C)(C)=O)n1 [Brigatinib derivative C (SIAIS164005), (2-((5-Chloro-2-((2-methoxy-4-(4-(piperazin-1-yl)piperidin-1-yl)phenyl)amino)pyrimidin-4-yl)amino)phenyl) dimethyl phosphine oxide, reference compound] | 11.1 | – | degradation effect on ALK protein ([2]; 16 hours, concentrations up to 500 nM): no degradation effect |
| CCc1cc2c(cc1N1CCC(N3CCN(CCCCC#Cc4cccc5c4CN(C4CCC(=O)NC4=O)C5=O)CC3)CC1)C(C)(C)c1[nH]c3cc(C#N)ccc3c1C2=O (stereo not shown) [SIAIS293002, 8-(4-(4-(6-(2-(2,6-dioxopiperidin-3-yl)-1-oxoisoindolin-4-yl)hex-5-yn-1-yl)piperazin-1-yl)piperidin-1-yl)-9-ethyl-6,6-dimethyl-11-oxo-6,11-dihydro-5H-benzo[b]carbazole-3-carbonitrile] | – | 2.9 | – |
| CCc1cc2c(cc1N1CCC(N)CC1)C(C)(C)c1[nH]c3cc(C#N)ccc3c1C2=O [Alectinib derivative B (SIAIS184193), 8-(4-aminopiperidin-1-yl)-9-ethyl-6,6-dimethyl-11-oxo-6,11-dihydro-5H-benzo[b]carbazole-3-carbonitrile] | – | 9.1 ± 5.5 | – |
| CCc1cc2c(cc1N1CCC(N3CCN(C(=O)CCCCNc4cccc5c4CN(C4CCC(=O)NC4=O)C5=O)CC3)CC1)C(C)(C)c1[nH]c3cc(C#N)ccc3c1C2=O (stereo not shown) [SIAIS262093, 8-(4-(4-(5-((2-(2,6-dioxopiperidin-3-yl)-1-oxoisoindolin-4-yl)amino)pentanoyl)piperazin-1-yl)piperidin-1-yl)-9-ethyl-6,6-dimethyl-11-oxo-6,11-dihydro-5H-benzo[b]carbazole-3-carbonitrile] | – | 2.65 ± 1.72 | – |
| CCc1cc2c(cc1N1CCC(N3CCN(CCCCCCCC#Cc4cccc5c4CN(C4CCC(=O)NC4=O)C5=O)CC3)CC1)C(C)(C)c1[nH]c3cc(C#N)ccc3c1C2=O (stereo not shown) [SIAIS293004, 8-(4-(4-(9-(2-(2,6-dioxopiperidin-3-yl)-1-oxoisoindolin-4-yl)non-8-yn-1-yl)piperazin-1-yl)piperidin-1-yl)-9-ethyl-6,6-dimethyl-11-oxo-6,11-dihydro-5H-benzo[b]carbazole-3-carbonitrile] | – | 9.5 | – |

Now from value to compound, other results behind:

| IC50 [1, 3] [nM] | IC50 [1, 5] [nM] | SMILES | also measured |
| --- | --- | --- | --- |
| 1.5 | – | COc1cc(N2CCC(N3CCN(CCCCCCC#Cc4cccc5c4CN(C4CCC(=O)NC4=O)C5=O)CC3)CC2)ccc1Nc1ncc(Cl)c(Nc2ccccc2P(C)(C)=O)n1 (stereo not shown) [SIAIS293017, 3-(4-(8-(4-(1-(4-((5-chloro-4-((2-(dimethylphosphono)phenyl)amino)pyrimidin-2-yl)amino)-3-methoxyphenyl)piperidin-4-yl)piperazin-1-yl)oct-1-yn-1-yl)-1-oxoisoindolin-2-yl)piperidine-2,6-dione] | DC50 [2, 4]: 0.5 to 5 nM |
| 84.5 ± 17.3 | – | COc1cc(N2CCC(N3CCN(C(=O)COCCOCCOCCOCCNc4cccc5c4CN(C4CCC(=O)NC4=O)C5=O)CC3)CC2)ccc1Nc1ncc(Cl)c(Nc2ccccc2P(C)(C)=O)n1 (stereo not shown) [SIAIS352056, 3-(4-((14-(4-(1-(4-((5-chloro-4-((2-(dimethylphosphono)phenyl)amino)pyrimidin-2-yl)amino)-3-methoxyphenyl)piperidin-4-yl)piperazin-1-yl)-14-oxo-3,6,9,12-tetraoxatetradecyl)amino)-1-oxoisoindolin-2-yl)piperidine-2,6-dione] | – |
| 102 ± 43.9 | – | COc1cc(N2CCC(N3CCN(C(=O)COCCOCCOCCOCCOCCNc4cccc5c4CN(C4CCC(=O)NC4=O)C5=O)CC3)CC2)ccc1Nc1ncc(Cl)c(Nc2ccccc2P(C)(C)=O)n1 (stereo not shown) [SIAIS352057, 3-(4-((17-(4-(1-(4-((5-chloro-4-((2-(dimethylphosphono)phenyl)amino)pyrimidin-2-yl)amino)-3-methoxyphenyl)piperidin-4-yl)piperazin-1-yl)-17-oxo-3,6,9,12,15-pentaoxaheptadecyl)amino)-1-oxoisoindolin-2-yl)piperidine-2,6-dione] | – |
| 19 ± 5.8 | – | COc1cc(N2CCC(N3CCN(CCCC#Cc4cccc5c4C(=O)N(C4CCC(=O)NC4=O)C5=O)CC3)CC2)ccc1Nc1ncc(Cl)c(Nc2ccccc2P(C)(C)=O)n1 (stereo not shown) [SIAIS352010, 4-(5-(4-(1-(4-((5-chloro-4-((2-(dimethylphosphono)phenyl)amino)pyrimidin-2-yl)amino)-3-methoxyphenyl)piperidin-4-yl)piperazin-1-yl)pent-1-yn-1-yl)-2-(2,6-dioxopiperidin-3-yl)isoindoline-1,3-dione] | – |
| – | 6.5 ± 4 | CCc1cc2c(cc1N1CCN(CCCCCc3cccc4c3CN(C3CCC(=O)NC3=O)C4=O)CC1)C(C)(C)c1[nH]c3cc(C#N)ccc3c1C2=O (stereo not shown) [SIAIS350081, 8-(4-(5-(2-(2,6-dioxopiperidin-3-yl)-1-oxoisoindolin-4-yl)pentyl)piperazin-1-yl)-9-ethyl-6,6-dimethyl-11-oxo-6,11-dihydro-5H-benzo[b]carbazole-3-carbonitrile] | – |
| – | 10.3 ± 5.1 | CCc1cc2c(cc1N1CCC(NC(=O)CCCCNc3cccc4c3CN(C3CCC(=O)NC3=O)C4=O)CC1)C(C)(C)c1[nH]c3cc(C#N)ccc3c1C2=O (stereo not shown) [SIAIS293012, N-(1-(3-cyano-9-ethyl-6,6-dimethyl-11-oxo-6,11-dihydro-5H-benzo[b]carbazol-8-yl)piperidin-4-yl)-5-((2-(2,6-dioxopiperidin-3-yl)-1-oxoisoindolin-4-yl)amino)pentanamide] | – |
| – | 1.1 ± 0.7 | CCc1cc2c(cc1N1CCC(N3CCN(CCCCCc4cccc5c4CN(C4CCC(=O)NC4=O)C5=O)CC3)CC1)C(C)(C)c1[nH]c3cc(C#N)ccc3c1C2=O (stereo not shown) [SIAIS350083, 8-(4-(4-(5-(2-(2,6-dioxopiperidin-3-yl)-1-oxoisoindolin-4-yl)pentyl)piperazin-1-yl)piperidin-1-yl)-9-ethyl-6,6-dimethyl-11-oxo-6,11-dihydro-5H-benzo[b]carbazole-3-carbonitrile] | – |
| 15 ± 4.4 | – | COc1cc(N2CCC(N3CCN(C(=O)COCCOCCOCCNc4cccc5c4CN(C4CCC(=O)NC4=O)C5=O)CC3)CC2)ccc1Nc1ncc(Cl)c(Nc2ccccc2P(C)(C)=O)n1 (stereo not shown) [SIAIS352055, 3-(4-((2-(2-(2-(2-(4-(1-(4-((5-chloro-4-((2-(dimethylphosphono)phenyl)amino)pyrimidin-2-yl)amino)-3-methoxyphenyl)piperidin-4-yl)piperazin-1-yl)-2-oxoethoxy)ethoxy)ethoxy)ethyl)amino)-1-oxoisoindolin-2-yl)piperidine-2,6-dione] | – |
